According to patent US20040166575A1, “Inosine producing bacterium belonging to the genus Bacillus and method for producing inosine” (priority 2003, published 2004):
Where “and” joins values, the source holds several entries; their conditions need not be identical. Equal values may be shown once.

Experiments:
[1] = tested on: 6-ethoxypurine-resistant strain EP1 (AJ13937); experiment: Assay for degree of 6-ethoxypurine resistance: colony growth on minimal medium plate, EP1 strain; format: cell-based, Bacillus subtilis; settings: for Relative growth degree / Diameter of colony: EP1; for Relative growth degree: colony diameter with 2000 mg/L 6-ethoxypurine / without ×100; for Diameter of colony: minimal medium plate containing 6-ethoxypurine (2000 μg/mL)
[2] = tested on: Bacillus subtilis recombinant strain KMBS16 (purR, purA, deoD deficient); experiment: Assay for degree of 6-ethoxypurine resistance: colony growth on minimal medium plate, parent strain; format: cell-based; settings: for Relative growth degree / Diameter of colony: KMBS16; for Relative growth degree: colony diameter with 2000 mg/L 6-ethoxypurine / without ×100; for Diameter of colony: minimal medium plate containing 6-ethoxypurine (2000 μg/mL)
[3] = tested on: 6-ethoxypurine-resistant strain EP2; experiment: Assay for degree of 6-ethoxypurine resistance: colony growth on minimal medium plate, EP2 strain; format: cell-based, Bacillus subtilis; settings: for Relative growth degree / Diameter of colony: EP2; for Relative growth degree: colony diameter with 2000 mg/L 6-ethoxypurine / without ×100; for Diameter of colony: minimal medium plate containing 6-ethoxypurine (2000 μg/mL)
Protocol: Relative growth degree (%)=[colony diameter (mm) observed in the medium containing 6-ethoxypurine]/[colony diameter (mm) observed in the medium not containing 6-ethoxypurine]×100
The Bacillus subtilis recombinant strain KMBS16 deficient in the purine operon repressor gene (purR), succinyl-AMP synthase gene (purA) and purine nucleoside phosphorylase gene (deoD) was treated with 400 μg/ml of nitrosoguanidine (NTG) at 37° C. for 30 minutes. Then, the NTG-treated cell suspension was spread on a minimal medium (20 g/L of glucose, 5 g/L of ammonium chloride, 4 g/L of potassium dihydrogenphosphate, 0.01 g/L of ferrous sulfate, 0.01 g/L of manganese sulfate, 0.5 g/L of sodium citrate, 1.0 g/L of L-glutamic acid, 0.1 g/L of adenine, 50 mg/L of tryptophan, pH 7.0) plate containing 2000 mg/L of 6-ethoxypurine, and the cells were cultured at 37° C. for 24 hours. […] The EP1 strain was given a private number of AJ13937. This strain was deposited at the independent administrative agency, National Institute of Advanced Industrial Science and Technology, International Patent Organism Depositary (Tsukuba Central 6, 1-1, Higashi 1-Chome, Tsukuba-shi, Ibaraki-ken, 305-8566, Japan) on Dec. 25, 2001 and received an accession number of FERM P-18665. Then, it was transferred to an international deposit under the provisions of the Budapest Treaty on Jan. 14, 2004, and received an accession number of FERM BP-08595.
Degree of 6-ethoxypurine resistance of the mutant strain obtained as described above was examined in detail. The parent strain and the mutant strain were adenine auxotrophic, and the drug used was a purine analogue. Therefore, the amount of adenine added to the minimal medium was limited to the required minimum level (2 mg/L in this example).
The 6-ethoxypurine-resistant strains (EP1 strain and EP2 strain) and the parent strain KMBS16 were each inoculated into the minimum liquid medium and cultured overnight at 34° C. The cells were separated from the culture broth by centrifugation, washed three times with the minimal medium and suspended again in the same medium. The suspension was appropriately diluted with the same medium and spread on a minimal medium plate and a minimal medium plate containing 2000 mg/L of 6-ethoxypurine, and the cells were cultured at 34° C. […] The culture was continued even thereafter, and diameters of several single colonies were measured after […] to 66 hours. An average of colony diameters was calculated for each strain, and the relative growth degree was calculated according to the aforementioned equation.
In the tables, the symbol “−” means that no colony could be confirmed, and the symbol “±” means that since the colonies were indefinite, the diameters could not be measured.

`CCOc1ncnc2nc[nH]c12` [6-ethoxypurine] was tested, and the Relative growth degree ([1]; 0 hr) was 0%, the Relative growth degree ([1]; 42 hr) was 80.0% and 100.0% and the Relative growth degree ([1]; 45 hr) was 83.3%. For the same compound, the Relative growth degree ([1]; 48 hr) was 80.0%, the Relative growth degree ([1]; 52 hr) was 100.0% and the Diameter of colony ([1]; 34° C., 28 hr) was “±”. For the same compound, the Diameter of colony ([1]; 34° C., 42 hr) was 1.00 mm and 0.80 mm, the Diameter of colony ([1]; 34° C., 45 hr) was 1.20 mm and 1.00 mm and the Diameter of colony ([1]; 34° C., 48 hr) was 1.50 mm and 1.20 mm. The Diameter of colony ([1]; 34° C., 52 hr) was 1.50 mm, the Diameter of colony ([1]; 34° C., 66 hr) was 2.00 mm and 2.50 mm and the “colony formation after 24 hours” value ([1]; EP1 strain, minimal medium plate containing 2000 mg/L of 6-ethoxypurine, 34° C., 24 hours) was “minute colonies were confirmed”. For the same compound, the Relative growth degree ([2]; 0 hr) was 0%, the Relative growth degree ([2]; 42 hr) was 50.0% and 40.0% and the Relative growth degree ([2]; 45 hr) was 58.3% and 41.7%. For the same compound, the Relative growth degree ([2]; 48 hr) was 66.7% and 50.0%, the Relative growth degree ([2]; 52 hr) was 66.7% and the Relative growth degree ([2]; 66 hr) was 62.5% and 50.0%. The Diameter of colony ([2]; 34° C., 28 hr) was “−”, the Diameter of colony ([2]; 34° C., 42 hr) was 0.50 mm and 0.40 mm and the Diameter of colony ([2]; 34° C., 45 hr) was 0.70 mm and 0.50 mm. The Diameter of colony ([2]; 34° C., 48 hr) was 1.00 mm and 0.75 mm, the Diameter of colony ([2]; 34° C., 52 hr) was 1.00 mm and the Diameter of colony ([2]; 34° C., 66 hr) was 1.25 mm and 1.00 mm. For the same compound, the “colony formation after 24 hours” value ([2]; parent strain KMBS16, minimal medium plate containing 2000 mg/L of 6-ethoxypurine, 34° C., 24 hours) was “no colony was confirmed”, the Relative growth degree ([3]; 0 hr) was 0% and the Relative growth degree ([3]; 42 hr) was 100.0%. The Diameter of colony ([3]; 34° C., 28 hr) was “±”, the Diameter of colony ([3]; 34° C., 42 hr) was 1.00 mm and the Diameter of colony ([3]; 34° C., 45 hr) was 1.20 mm. For the same compound, the Diameter of colony ([3]; 34° C., 48 hr) was 1.50 mm, the Diameter of colony ([3]; 34° C., 52 hr) was 1.50 mm and the Diameter of colony ([3]; 34° C., 66 hr) was 2.00 mm. For the same compound, the “colony formation after 24 hours” value ([3]; EP2 strain, minimal medium plate containing 2000 mg/L of 6-ethoxypurine, 34° C., 24 hours) was “minute colonies were confirmed”.
